The source made the active and inactive calls. The calls are words filed in the database; no cut-off is given here.

This is an account of results in ChEMBL document CHEMBL1122830, “N-(Phosphonoacetyl)amino phosphonates. Phosphonate analogues of N-(phosphonoacetyl)-L-aspartic acid (PALA)” (1985).

The first assay relates to KB. Description: Inhibitory activity against human KB cell line at the dose range of 1-400 (ug/mL); NA=Not active.
Conditions: not given
In kind it is functional, cell-based.
Turning to `CCOP(=O)(OCC)C(N)C1CCC1` (stereo unspecified), the ID50 entry was “inactive”.
As for `O=C(CP(=O)(O)O)NC1(P(=O)(O)O)CCCC1`, the ID50 entry is “inactive”.
The same measure, in the same setting: in the case of `CC(NC(=O)CP(=O)(O)O)P(=O)(O)O` (stereo unspecified) it was “inactive”.
The same measure, in the same setting: in the case of `O=C(O)CCCC(NC(=O)CP(=O)(O)O)P(=O)(O)O` (stereo unspecified) it was “inactive”; in that of `CC(C)(C)C(NC(=O)CP(=O)(O)O)P(=O)(O)O` (stereo unspecified), “inactive”.
In the case of `O=C(O)CC(NC(=O)CP(=O)(O)O)P(=O)(O)O` (stereo unspecified), the ID50 result is “inactive”.
Same read-out and setting: the result for `CCOP(=O)(OCC)C(N)C1CCCC1` (stereo unspecified) reads “inactive”; that for `O=C(CP(=O)(O)O)NC(C1CCCC1)P(=O)(O)O` (stereo unspecified), “inactive”.
For `CCCC(NC(=O)CP(=O)(O)O)P(=O)(O)O` (stereo in doubt; form 2), the ID50 entry is “inactive”.
The same measure, in the same setting: the result for `CCOP(=O)(OCC)C(N)CCC(=O)OC` (stereo unspecified) reads “inactive”.
Still for that read-out and setting: the result for `CC(C)(NC(=O)CP(=O)(O)O)P(=O)(O)O` reads “inactive”; that for `CC(C)C(NC(=O)CP(=O)(O)O)P(=O)(O)O` (stereo unspecified), “inactive”.
The same measure, in the same setting: the result for `O=C(O)CCC(NC(=O)CP(=O)(O)O)P(=O)(O)O` (stereo unspecified) reads “inactive”; that for `CCOP(=O)(OCC)C(N)C1CCCCC1` (stereo unspecified), “inactive”.
For `O=C(O)CC(NC(=O)CP(=O)(O)O)C(=O)O` (stereo unspecified), the ID50 entry was “inactive”.
The same measure, in the same setting: the result for `O=C(CP(=O)(O)O)NC(C1CC1)P(=O)(O)O` (stereo unspecified) reads “inactive”; that for `CCOC(=O)CCCC(N)P(=O)(OCC)OCC` (stereo unspecified), “inactive”.
For `O=C(CP(=O)(O)O)NC(C1CCC1)P(=O)(O)O` (stereo unspecified), the ID50 entry was “inactive”.
On to `CCP(=O)(O)CNC(=O)CP(=O)(O)O`, for which the ID50 entry is “inactive”.
In the case of `O=C(CP(=O)(O)O)NC(C1CCCCC1)P(=O)(O)O` (stereo unspecified), the ID50 result is “inactive”.
Still for that read-out and setting: in the case of `O=C(CP(=O)(O)O)NC(CP(=O)(O)O)C(=O)O` (stereo unspecified) it was “inactive”; in that of `O=C(CP(=O)(O)O)NCCCP(=O)(O)O`, “inactive”.
On to `O=C(CP(=O)(O)O)NC(c1ccccc1)P(=O)(O)O` (stereo unspecified), for which the ID50 entry was “inactive”.
On the same count and under the same terms, in the case of `CCCC(NC(=O)CP(=O)(O)O)P(=O)(O)O` (stereo in doubt; form 1) it was “inactive”; in that of `CCOP(=O)(OCC)C(N)C1CC1` (stereo unspecified), “inactive”.

The test system of another assay is KB. Description: Inhibitory activity against human KB cell line. The conditions noted are these: read-out: ID50 (the source's name). In kind it is functional.
As for `CCOP(=O)(OCC)C(N)C(C)(C)C.O=C(O)C(=O)O` (stereo unspecified), the IC50 was 240 µg/mL.
